Source: the NIST ThermoML archive (doi:10.1016/j.jct.2014.04.016)
Several values for one entry are separate records, joined by “and”; a condition that tells them apart may be missing. Equal values may be shown once. Numbers after ± are expanded uncertainties.

Assay: xn = mol fraction of the nth substance listed
Settings: 100 kPa, Liquid; for viscosity: Concentric cylinders viscometry; for mass density: Vibrating tube method; for electrical conductivity: Alternating current cell with electrodes, x1 = 0.5001

CCCCCCCCOS(=O)(=O)[O-].CCn1cc[n+](C)c1 [1-ethyl-3-methylimidazolium octyl sulfate] + O
Settings	mass density	viscosity
298.1 K, x1 = 0.1197	1065.5 ± 1 kg/m3 and 1065.9 ± 1 kg/m3	–
298.1 K, x1 = 0.1402	1069.3 ± 1 kg/m3	–
298.1 K, x1 = 0.1605	1072.8 ± 1 kg/m3 and 1072.7 ± 1 kg/m3	–
298.1 K, x1 = 0.2632	1081.9 ± 1 kg/m3 and 1081.7 ± 1 kg/m3	–
298.1 K, x1 = 0.3076	1084.1 ± 1 kg/m3	–
298.1 K, x1 = 0.3555	1085.8 ± 1 kg/m3	104.1 ± 7 mPa·s and 104 ± 7 mPa·s
298.1 K, x1 = 0.4108	1087.7 ± 1 kg/m3	118 ± 8.1 mPa·s
303.1 K, x1 = 0.1605	1069.3 ± 1 kg/m3	45.8 ± 2.9 mPa·s
303.1 K, x1 = 0.2632	1078.5 ± 1 kg/m3	62.15 ± 4 mPa·s
303.1 K, x1 = 0.3076	1080.7 ± 1 kg/m3	69.23 ± 4.5 mPa·s
303.1 K, x1 = 0.3555	1082.4 ± 1 kg/m3	80.49 ± 5.3 mPa·s
303.1 K, x1 = 0.4108	1084.3 ± 1 kg/m3	91.61 ± 6.1 mPa·s
308.1 K, x1 = 0.1605	1065.9 ± 1 kg/m3	35.89 ± 2.2 mPa·s
308.1 K, x1 = 0.2632	1075 ± 1 kg/m3	48.72 ± 3.1 mPa·s
308.1 K, x1 = 0.3076	1077.2 ± 1 kg/m3	54.47 ± 3.4 mPa·s
308.1 K, x1 = 0.3555	1079 ± 1 kg/m3	63.27 ± 4 mPa·s
308.1 K, x1 = 0.4108	1080.9 ± 1 kg/m3	72.28 ± 4.7 mPa·s
313.1 K, x1 = 0.1197	1055.4 ± 1 kg/m3	23.09 ± 1.4 mPa·s
313.1 K, x1 = 0.1605	1062.4 ± 1 kg/m3	28.53 ± 1.8 mPa·s
313.1 K, x1 = 0.2632	1072.9 ± 1 kg/m3	40.23 ± 2.5 mPa·s
313.1 K, x1 = 0.3076	1072.2 ± 1 kg/m3	43.26 ± 2.7 mPa·s
313.1 K, x1 = 0.3555	1075.6 ± 1 kg/m3	50.46 ± 3.2 mPa·s
313.1 K, x1 = 0.4108	1077.6 ± 1 kg/m3	57.88 ± 3.7 mPa·s
318.1 K, x1 = 0.3076	1070.1 ± 1 kg/m3	36.02 ± 2.2 mPa·s
318.1 K, x1 = 0.3555	1072.2 ± 1 kg/m3	40.79 ± 2.5 mPa·s
318.1 K, x1 = 0.4108	1074.2 ± 1 kg/m3	46.97 ± 2.9 mPa·s
323.1 K, x1 = 0.3555	1068.8 ± 1 kg/m3	33.03 ± 2 mPa·s
323.1 K, x1 = 0.4108	1070.8 ± 1 kg/m3	38.58 ± 2.4 mPa·s

Settings	electrical conductivity [S/m]
303.1 K	0.295 ± 0.006
313.1 K	0.42 ± 0.008
323.1 K	0.58 ± 0.012
